Legend:
[1] = system: co-cultures of normal human keratinocytes/melanocytes; assay: Modulation of melanogenesis: incorporation of 14C thiouracil in co-cultures of keratinocytes/melanocytes; format: cell-based; details: NHK/NHM co-culture, three days treatment
Description: The modulator effect on melanogenesis of the extract obtained by Protocol 2 of Example 1 was tested on co-cultures of normal human keratinocytes/melanocytes according to the method described in the Patent FR 95 06491. The rate of synthesis of melanine is evaluated by the incorporation of thiouracil labelled with C^14. The synthesis of the proteins, determined by the incorporation of tritiated leucine, is taken as an indicator of cytotoxicity and of proliferation. The normal human keratinocytes (NHK) and the normal human melanocytes (NHM) are cultured from preputial skin. The two types of cells are proliferated and stored frozen. […] The proteins are precipitated with the aid of 5% trichloroacetic acid (TCA) and washed in order to eliminate the free radioactivity. […] The radioactivity is counted with the aid of the Wallac counter. The results are expressed as a percentage of the control according to the formula: [formula] in which: ^14CP is the average of the disintegrations per minute (dpm) of ^14C thiouracil in 3 similar wells treated with a product (P); ^3HP is the average of the corresponding ^3H leucine dpm; ^14CT is the average of the ^14C thiouracil dpm in 3 similar control wells (T); ^3HT is the average of the corresponding ^3H leucine dpm.

[2] = system: co-cultures of normal human keratinocytes/melanocytes; assay: Synthesis of proteins: incorporation of tritiated leucine, indicator of cytotoxicity and of proliferation; format: cell-based; details: NHK/NHM co-culture, three days treatment
Description: The modulator effect on melanogenesis of the extract obtained by Protocol 2 of Example 1 was tested on co-cultures of normal human keratinocytes/melanocytes according to the method described in the Patent FR 95 06491. The rate of synthesis of melanine is evaluated by the incorporation of thiouracil labelled with C^14. The synthesis of the proteins, determined by the incorporation of tritiated leucine, is taken as an indicator of cytotoxicity and of proliferation.
The normal human keratinocytes (NHK) and the normal human melanocytes (NHM) are cultured from preputial skin. The two types of cells are proliferated and stored frozen. Eight days before the test, each of the cell types is again put into culture in KGM medium from Gibco for keratinocytes (NHK) and into M2 medium from Dr Olsson for melanocytes (NHM) (Olsson, M. J. et al., Lancet (1992) 340, 981). […]
The total radioactivity incorporated in the proteins is estimated by the incorporation of tritiated leucine. […]
After one night, the cells are rinsed in phosphate buffer. The proteins are precipitated with the aid of 5% trichloroacetic acid (TCA) and washed in order to eliminate the free radioactivity. […]
The remainder of the extract, or 950 μl, is filtered through a DEAE Filtermat filter. […] The radioactivity is counted with the aid of the Wallac counter. The results are expressed as a percentage of the control according to the formula: [formula] […]

| Structure (SMILES) | ^14CThioU. (%/control) ([1]; 0.5 mM) | ^3HLeu. (%/control) ([2]; 0.5 mM) | ^14CThioU. (%/control) ([1]; 1 mM) | ^3HLeu. (%/control) ([2]; 1 mM) |
| --- | --- | --- | --- | --- |
| O=c1cc(CO)occ1O [kojic acid] | −47 | +4 %/control | – | – |
| N[C@@H](Cc1ccc(O)cc1)C(=O)O [tyrosine] | – | – | +118 %/control | −2 |

— patent US6726940B2, “Use of at least one extract of the genus chrysanthemum for assisting skin and/or hair pigmentation” (Societe L'Oreal S.A., priority 1997, dated 2004)
